Results taken from PubChem BioAssay AID330 (DTP/NCI, 2004).
Values joined by “and” are separate entries in the source; they are usually repeats but may differ in a detail not shown here. Identical values can stand only once. Inconclusive results and toxic doses are left out. Rule for the calls: active = survival T/C of 150% or more; inactive = T/C below 125% in these data.

Test system: P388 leukemia ip, CD2F1 mice, survival T/C
Test: NCI In Vivo Anticancer Drug Screen. Data for tumor model P388 Leukemia (intraperitoneal) in CD2F1 (CDF1) mice
Conditions: endpoint: median survival time, higher = longer survival
Method in brief: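 Mice carrying the transplanted tumor received test compound or vehicle. Survival was recorded in each group, and the value is the treated-group measurement divided by that of the vehicle-treated control group.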

[1] = dose: 50.0 mg/kg/injection, schedule: Q01DX005 (ip), vehicle: saline
[2] = dose: 400.0 mg/kg/injection, schedule: Q04DX002 (ip), vehicle: saline
[3] = dose: 400.0 mg/kg/injection, schedule: Q04DX003 (ip), vehicle: saline
[4] = dose: 100.0 mg/kg/injection, schedule: Q04DX003 (ip), vehicle: saline
[5] = dose: 200.0 mg/kg/injection, schedule: Q04DX003 (ip), vehicle: saline
[6] = dose: 100.0 mg/kg/injection, schedule: Q04DX002 (ip), vehicle: saline
[7] = dose: 200.0 mg/kg/injection, schedule: Q04DX002 (ip), vehicle: saline
[8] = dose: 12.5 mg/kg/injection, schedule: Q01DX009 (ip), vehicle: saline
[9] = dose: 25.0 mg/kg/injection, schedule: Q01DX009 (ip), vehicle: saline
[10] = dose: 50.0 mg/kg/injection, schedule: Q01DX009 (ip), vehicle: saline

Measured: T/C

O=c1[nH]c(=O)n(C2CC(O)C(CO)O2)cc1F (stereo not drawn)
active: dose: 10.0 mg/kg/injection, schedule: Q01DX010 (ip), vehicle: saline 163 % of control | dose: 20.0 mg/kg/injection, schedule: Q01DX009 (ip), vehicle: saline 155 % of control | dose: 20.0 mg/kg/injection, schedule: Q01DX010 (ip), vehicle: saline 181 % of control | dose: 38.0 mg/kg/injection, schedule: Q01DX009 (ip), vehicle: saline 160 % of control | dose: 40.0 mg/kg/injection, schedule: Q01DX010 (ip), vehicle: saline 222 % of control | dose: 49.0 mg/kg/injection, schedule: Q01DX009 (ip), vehicle: saline 159 % of control and 167 % of control | dose: 75.0 mg/kg/injection, schedule: Q01DX009 (ip), vehicle: saline 185 % of control | dose: 240.0 mg/kg/injection, schedule: Q04DX002 (ip), vehicle: saline 157 % of control | dose: 350.0 mg/kg/injection, schedule: Q04DX003 (ip), vehicle: saline 168 % of control | [2] 164 % of control
inactive: dose: 12.5 mg/kg/injection, schedule: Q04DX002 (ip), vehicle: water 108 % of control | dose: 40.0 mg/kg/injection, schedule: Q01DX009 (ip), vehicle: saline 117 % of control | [1] 114 % of control | dose: 56.0 mg/kg/injection, schedule: Q01DX009 (ip), vehicle: saline 123 % of control | dose: 80.0 mg/kg/injection, schedule: Q01DX009 (ip), vehicle: saline 92 % of control | dose: 100.0 mg/kg/injection, schedule: Q01DX001 (ip), vehicle: saline 110 % of control | dose: 100.0 mg/kg/injection, schedule: Q01DX005 (ip), vehicle: saline 98 % of control | dose: 110.0 mg/kg/injection, schedule: Q01DX009 (ip), vehicle: saline 103 % of control | dose: 120.0 mg/kg/injection, schedule: Q01DX009 (ip), vehicle: saline 81 % of control | dose: 180.0 mg/kg/injection, schedule: Q01DX009 (ip), vehicle: saline 83 % of control | dose: 200.0 mg/kg/injection, schedule: Q01DX001 (ip), vehicle: saline 111 % of control | dose: 200.0 mg/kg/injection, schedule: Q01DX005 (ip), vehicle: saline 95 % of control | [3] 100 % of control

CN(C)CCNc1ccc(O)c2c1C(=O)c1ccccc1C2=O
inactive: dose: 5.0 mg/kg/injection, schedule: Q01DX009 (ip), vehicle: acid diluted with saline 104 % of control | dose: 10.0 mg/kg/injection, schedule: Q01DX009 (ip), vehicle: acid diluted with saline 100 % of control | dose: 20.0 mg/kg/injection, schedule: Q01DX009 (ip), vehicle: acid diluted with saline 100 % of control | dose: 20.0 mg/kg/injection, schedule: Q01DX009 (ip), vehicle: distilled water + Tween-80 110 % of control | dose: 40.0 mg/kg/injection, schedule: Q01DX009 (ip), vehicle: acid diluted with saline 124 % of control | dose: 40.0 mg/kg/injection, schedule: Q01DX009 (ip), vehicle: distilled water + Tween-80 117 % of control
active: dose: 80.0 mg/kg/injection, schedule: Q01DX009 (ip), vehicle: acid diluted with saline 153 % of control | dose: 160.0 mg/kg/injection, schedule: Q01DX009 (ip), vehicle: distilled water + Tween-80 153 % of control

O=C(O)C(Cc1cccs1)NC(=O)C(F)(F)F (stereo not drawn)
inactive: dose: 50.0 mg/kg/injection, schedule: Q01DX009 (ip), vehicle: saline + alcohol 99 % of control | dose: 100.0 mg/kg/injection, schedule: Q01DX009 (ip), vehicle: saline + alcohol 93 % of control | dose: 200.0 mg/kg/injection, schedule: Q01DX009 (ip), vehicle: saline + alcohol 92 % of control

CCOC(=O)CCCCCO
inactive: dose: 100.0 mg/kg/injection, schedule: Q01DX001 (ip), vehicle: saline with Tween-80 104 % of control | dose: 200.0 mg/kg/injection, schedule: Q01DX001 (ip), vehicle: saline with Tween-80 104 % of control | dose: 400.0 mg/kg/injection, schedule: Q01DX001 (ip), vehicle: saline with Tween-80 106 % of control

CC1/C(=N\Nc2ccc([N+](=O)[O-])cc2)CC2C3(C)CCC2(C(C)C(=O)O)C(=O)C13 (stereo not drawn)
inactive: [4] 93 % of control | [5] 93 % of control | [3] 95 % of control

CCc1nc2c(cnn2C)c(=O)n1C
inactive: dose: 50.0 mg/kg/injection, schedule: Q01DX005 (ip), vehicle: Klucel (hydroxypropylcellulose) (HPC) 89 % of control | dose: 100.0 mg/kg/injection, schedule: Q01DX005 (ip), vehicle: Klucel (hydroxypropylcellulose) (HPC) 98 % of control | dose: 200.0 mg/kg/injection, schedule: Q01DX005 (ip), vehicle: Klucel (hydroxypropylcellulose) (HPC) 90 % of control

N#CCCNc1ccc(NCCC#N)c2c1C(=O)c1c(O)ccc(O)c1C2=O
inactive: dose: 25.0 mg/kg/injection, schedule: Q04DX002 (ip), vehicle: saline with Tween-80 103 % of control | dose: 50.0 mg/kg/injection, schedule: Q04DX002 (ip), vehicle: saline with Tween-80 94 % of control | dose: 100.0 mg/kg/injection, schedule: Q04DX002 (ip), vehicle: saline with Tween-80 101 % of control | dose: 200.0 mg/kg/injection, schedule: Q04DX002 (ip), vehicle: saline with Tween-80 104 % of control

COc1cccc2c1C(=O)c1c(O)c3c(c(O)c1C2=O)C[C@@](O)(/C(C)=N/NC(=O)c1ccccc1)C[C@@H]3OC1CC(N(C)C)C(O)C(C)O1 (stereo partly drawn)
inactive: dose: 12.5 mg/kg/injection, schedule: Q01DX009 (ip), vehicle: water 103 % of control
active: dose: 0.78 mg/kg/injection, schedule: Q01DX009 (ip), vehicle: water 165 % of control | dose: 1.56 mg/kg/injection, schedule: Q01DX009 (ip), vehicle: water 165 % of control | dose: 3.13 mg/kg/injection, schedule: Q01DX009 (ip), vehicle: water 183 % of control and 192 % of control

O=C(Cc1csc2ccccc12)NCC1CC1
inactive: dose: 60.0 mg/kg/injection, schedule: Q01DX005 (ip), vehicle: saline with Tween-80 100 % of control | dose: 120.0 mg/kg/injection, schedule: Q01DX005 (ip), vehicle: saline with Tween-80 99 % of control | dose: 240.0 mg/kg/injection, schedule: Q01DX005 (ip), vehicle: saline with Tween-80 99 % of control

O=C1OC(Cl)C(c2ccccc2)=C1c1ccccc1 (stereo not drawn)
inactive: [6] 96 % of control | [7] 98 % of control | [2] 105 % of control

CN=C(NCCSCc1ccc2ccccc2n1)NCc1ccccc1
inactive: dose: 12.5 mg/kg/injection, schedule: Q01DX005 (ip), vehicle: saline 98 % of control | dose: 25.0 mg/kg/injection, schedule: Q01DX005 (ip), vehicle: saline 109 % of control | [1] 101 % of control

O=C(O)CC(/C=C\C(=O)C(=O)O)=C\O
inactive: dose: 1.56 mg/kg/injection, schedule: Q01DX009 (ip), vehicle: saline 100 % of control | dose: 3.12 mg/kg/injection, schedule: Q01DX009 (ip), vehicle: saline 101 % of control | dose: 6.25 mg/kg/injection, schedule: Q01DX009 (ip), vehicle: saline 100 % of control | [8] 100 % of control and 114 % of control | [9] 100 % of control and 109 % of control | [10] 106 % of control | dose: 100.0 mg/kg/injection, schedule: Q01DX009 (ip), vehicle: saline 112 % of control | dose: 200.0 mg/kg/injection, schedule: Q01DX009 (ip), vehicle: saline 86 % of control

CCN(CC)C(=O)N1CC1
inactive: [6] 102 % of control | [7] 100 % of control

C=C[C@H]1C2=CCOC(=O)C2=CO[C@@H]1OC1OC(CO)C(O)C(O)C1O (stereo partly drawn)
inactive: dose: 0.75 mg/kg/injection, schedule: Q01DX005 (ip), vehicle: water 95 % of control | dose: 1.5 mg/kg/injection, schedule: Q01DX005 (ip), vehicle: water 95 % of control | dose: 3.0 mg/kg/injection, schedule: Q01DX005 (ip), vehicle: water 95 % of control | dose: 6.0 mg/kg/injection, schedule: Q01DX005 (ip), vehicle: water 99 % of control

CCCCCCCCCCC[N+]1([O-])CCOCC1
inactive: [8] 101 % of control | [9] 99 % of control | [10] 99 % of control and 89 % of control

COc1ccc(C2CC(=O)N(c3ncccc3C)C(=O)C2)cc1
inactive: [4] 93 % of control | [5] 100 % of control | [3] 102 % of control

O=C1c2ccccc2C(=O)c2c1ccc1c2[nH]c2cc(Cl)c(Cl)cc21
inactive: dose: 50.0 mg/kg/injection, schedule: Q01DX005 (ip), vehicle: Klucel + Tween-80 98 % of control | dose: 100.0 mg/kg/injection, schedule: Q01DX005 (ip), vehicle: Klucel + Tween-80 91 % of control | dose: 200.0 mg/kg/injection, schedule: Q01DX005 (ip), vehicle: Klucel + Tween-80 98 % of control
